Where a SMILES comes first, the peptide text is derived from it. The star is where a group is joined. Palmitoyl = CCCCCCCCCCCCCCCC(=O)*
Tests used:
Assay type in all cases: cell-based
[1] = tested on: LP40-V1 pseudovirus (HIV-1 NL4-3 Env mutant); conditions: for IC50: LP40-V1 (Env selected at LP-40 0.3 µM), TZM-bl cells, 48 h, luciferase, mean ± SD, triplicate, repeated three times
Description: (§1) To simulate the sequence changes of viral resistance genes under different drug concentration pressures, we constructed the Env genes under different drug concentration pressures in the PCDNA3.1 vector and obtained a series of mutations. […] T20-V 6~12, T20-V 13~14, and T 20-V 15~18 were constructed at concentrations of 200 µM (P21), 400 µM (P24), and 2000 µM (P32), respectively. Similarly, the LP-40 pressure concentrations were 0.3 µM, 8 µM, 20 µM, and 200 µM, respectively, and the constructs were numbered LP40-V 1~5, LP40-V 6~8, LP40-V 9~11, and LP40-V 12~15. Resistance mutations will cause varying levels of damage to the function of the pseudoviral envelope proteins. Here, we explored how serial mutations affect the function of viral envelope proteins. Based on this problem, we performed a single round of quantitative P24-infection experiments, packaging the pseudovirus with a previously constructed series of mutant plasmids. We compared the invasion ability of the HIV-1 wild-type and mutant pseudoviruses toward target cells under the same P24 content (using the invasion capacity of each subtype as 100%).
(§2) The infectivity of HIV Env mutants and the inhibitory activities of membrane fusion inhibitors on mutants in TZM-bl cells were measured using a single-cycle infection assay as described previously. Briefly, the HIV pseudovirus was packed using an Env-coding plasmid, and pSG3ΔEnv was co-transfected into HEK293T cells. pSG3ΔEnv encodes an Env-defective, luciferase-expressing HIV-1 genome. After the pseudoviruses were harvested and filtrated, the amount of pseudoviruses was fixed via P24 antigen, and their infectivity was determined in TZM-bl cells. In order to measure the inhibitory activities of the inhibitors, inhibitors diluted serially 3-fold were mixed with an equal volume of pseudoviruses, and then 100 µL 1 × 10^5/mL TZM-bl cells were added to the mixture and incubated at 37 °C with 5% CO2 for 48 h. After that, TZM-bl cells were lysed using reporter lysis buffer, and IC50 values were calculated according to luciferase activity measured by luciferase assay reagents and a luminescence counter (Promega, Madison, WI, USA).

[2] = tested on: LP40-V10 pseudovirus (HIV-1 NL4-3 Env mutant); conditions: for IC50: LP40-V10 (Env selected at LP-40 20 µM), TZM-bl cells, 48 h, luciferase, mean ± SD, triplicate, repeated three times
Description: as §1, §2

[3] = tested on: LP40-V11 pseudovirus (HIV-1 NL4-3 Env mutant); conditions: for IC50: LP40-V11 (Env selected at LP-40 20 µM), TZM-bl cells, 48 h, luciferase, mean ± SD, triplicate, repeated three times
Description: as §1, §2

[4] = tested on: LP40-V13 pseudovirus (HIV-1 NL4-3 Env mutant); conditions: for IC50: LP40-V13 (Env selected at LP-40 200 µM), TZM-bl cells, 48 h, luciferase, mean ± SD, triplicate, repeated three times
Description: as §1, §2

[5] = tested on: LP40-V14 pseudovirus (HIV-1 NL4-3 Env mutant); conditions: for IC50: LP40-V14 (Env selected at LP-40 200 µM), TZM-bl cells, 48 h, luciferase, mean ± SD, triplicate, repeated three times
Description: as §1, §2

[6] = tested on: LP40-V8 pseudovirus (HIV-1 NL4-3 Env mutant); conditions: for IC50: LP40-V8 (Env selected at LP-40 8 µM), TZM-bl cells, 48 h, luciferase, mean ± SD, triplicate, repeated three times
Description: as §1, §2

[7] = tested on: T20-V1 pseudovirus (HIV-1 NL4-3 Env mutant); conditions: for IC50: T20-V1 (Env selected at T20 12 µM, P9), TZM-bl cells, 48 h, luciferase, mean ± SD, triplicate, repeated three times
Description: as §1, §2

[8] = tested on: T20-V10 pseudovirus (HIV-1 NL4-3 Env mutant); conditions: for IC50: T20-V10 (Env selected at T20 200 µM, P21), TZM-bl cells, 48 h, luciferase, mean ± SD, triplicate, repeated three times
Description: as §1, §2

[9] = tested on: T20-V13 pseudovirus (HIV-1 NL4-3 Env mutant); conditions: for IC50: T20-V13 (Env selected at T20 400 µM, P24), TZM-bl cells, 48 h, luciferase, mean ± SD, triplicate, repeated three times
Description: as §1, §2

[10] = tested on: T20-V14 pseudovirus (HIV-1 NL4-3 Env mutant); conditions: for IC50: T20-V14 (Env selected at T20 400 µM, P24), TZM-bl cells, 48 h, luciferase, mean ± SD, triplicate, repeated three times
Description: as §1, §2

[11] = tested on: T20-V15 pseudovirus (HIV-1 NL4-3 Env mutant); conditions: for IC50: T20-V15 (Env selected at T20 2000 µM, P32), TZM-bl cells, 48 h, luciferase, mean ± SD, triplicate, repeated three times
Description: as §1, §2

[12] = tested on: T20-V3 pseudovirus (HIV-1 NL4-3 Env mutant); conditions: for IC50: T20-V3 (Env selected at T20 12 µM, P9), TZM-bl cells, 48 h, luciferase, mean ± SD, triplicate, repeated three times
Description: as §1, §2

[13] = tested on: T20-V4 pseudovirus (HIV-1 NL4-3 Env mutant); conditions: for IC50: T20-V4 (Env selected at T20 12 µM, P9), TZM-bl cells, 48 h, luciferase, mean ± SD, triplicate, repeated three times
Description: as §1, §2

[14] = tested on: T20-V6 pseudovirus (HIV-1 NL4-3 Env mutant); conditions: for IC50: T20-V6 (Env selected at T20 200 µM, P21), TZM-bl cells, 48 h, luciferase, mean ± SD, triplicate, repeated three times
Description: as §1, §2

[15] = tested on: T20-V8 pseudovirus (HIV-1 NL4-3 Env mutant); conditions: T20-V8 (Env selected at T20 200 µM, P21); TZM-bl cells, 48 h, luciferase; mean ± SD, triplicate, repeated three times
Description: as §1, §2

| Molecule | IC50 [1] [µM] | IC50 [2] [µM] | IC50 [3] [µM] | IC50 [4] [µM] | IC50 [5] [µM] | IC50 [6] [µM] | IC50 [7] [µM] | IC50 [8] [µM] | IC50 [9] [µM] | IC50 [10] [µM] | IC50 [11] [µM] | IC50 [12] [µM] | IC50 [13] [µM] | IC50 [14] [µM] | IC50 [15] [µM] | also measured |
| --- | --- | --- | --- | --- | --- | --- | --- | --- | --- | --- | --- | --- | --- | --- | --- | --- |
| CCCCCCCCCCCCCCCC(=O)NCCCC[C@H](NC(=O)[C@H](CC(=O)O)NC(=O)[C@H](CC(C)C)NC(=O)[C@H](CCC(=O)O)NC(=O)[C@H](CC(C)C)NC(=O)[C@H](CC(C)C)NC(=O)[C@H](CCC(=O)O)NC(=O)[C@H](CCC(N)=O)NC(=O)[C@H](CCC(=O)O)NC(=O)[C@H](CC(N)=O)NC(=O)[C@H](CCCCN)NC(=O)[C@H](CCC(=O)O)NC(=O)[C@H](CCC(N)=O)NC(=O)[C@H](CCC(N)=O)NC(=O)[C@H](CC(N)=O)NC(=O)[C@H](CCC(N)=O)NC(=O)[C@H](CO)NC(=O)[C@H](CCC(=O)O)NC(=O)[C@H](CCC(=O)O)NC(=O)[C@@H](NC(=O)[C@H](CC(C)C)NC(=O)[C@H](CO)NC(=O)[C@H](Cc1c[nH]cn1)NC(=O)[C@@H](NC(=O)[C@H](CC(C)C)NC(=O)[C@H](CO)NC(=O)[C@@H](NC(=O)[C@H](Cc1ccc(O)cc1)NC(C)=O)[C@@H](C)O)[C@@H](C)CC)[C@@H](C)CC)C(N)=O [LP-40] (Ac-YTSLIHSLIEESQNQQEKNEQELLELDK(Palmitoyl)-NH2) | 0.0449 ± 0.00439 | 2.75 ± 0.634 | 3.33 ± 0.978 | > 6.25 | > 6.25 | 2.88 ± 1.07 | 0.0401 ± 0.00862 | 6.08 ± 1.17 | 3.19 ± 0.207 | 2.9 ± 0.0851 | > 6.25 | 0.0705 ± 0.00856 | 0.0766 ± 0.0197 | 3.51 ± 0.631 | > 6.25 | Fold change in IC50 ([1]; LP40-V1 relative to WT NL4-3, Table 1): 1.51 fold; Fold change in IC50 ([2]; LP40-V10 relative to WT NL4-3, Table 1): 92.52 fold; Fold change in IC50 ([3]; LP40-V11 relative to WT NL4-3, Table 1): 112.32 fold; Fold change in IC50 ([4]; LP40-V13 relative to WT NL4-3, Table 1): >227.43 fold; Fold change in IC50 ([5]; LP40-V14 relative to WT NL4-3, Table 1): >227.43 fold; Fold change in IC50 ([6]; LP40-V8 relative to WT NL4-3, Table 1): 97.17 fold; Fold change in IC50 ([7]; T20-V1 relative to WT NL4-3, Table 1): 1.35 fold; Fold change in IC50 ([8]; T20-V10 relative to WT NL4-3, Table 1): 204.88 fold; Fold change in IC50 ([9]; T20-V13 relative to WT NL4-3, Table 1): 107.32 fold; Fold change in IC50 ([10]; T20-V14 relative to WT NL4-3, Table 1): 97.57 fold; Fold change in IC50 ([11]; T20-V15 relative to WT NL4-3, Table 1): >227.43 fold; Fold change in IC50 ([12]; T20-V3 relative to WT NL4-3, Table 1): 2.38 fold; Fold change in IC50 ([13]; T20-V4 relative to WT NL4-3, Table 1): 2.58 fold; Fold change in IC50 ([14]; T20-V6 relative to WT NL4-3, Table 1): 118.37 fold |
| Enfuvirtide | 0.0598 ± 0.0163 | 1.26 ± 0.264 | 4.35 ± 0.522 | 5.17 ± 2.46 | 4.91 ± 2 | 1.15 ± 0.137 | 0.0577 ± 0.00723 | 3.34 ± 0.433 | 4.01 ± 0.571 | 4.43 ± 0.967 | 2.09 ± 0.248 | 0.0789 ± 0.0121 | 0.0531 ± 0.0149 | 3.85 ± 0.516 | 5.28 ± 1.1 |  |

Source: PMC9223764, “In Vitro Selection and Characterization of HIV-1 Variants with Increased Resistance to LP-40, Enfuvirtide-Based Lipopeptide Inhibitor” (International Journal of Molecular Sciences, 2022)
